We go through 46 compounds from patent publication US20230399319A1, “Acylsulfamide Compound and Pharmaceutical Use Therefor” (Japan Tobacco Inc., priority 2019, published 2023).

In the first experiment the test system is Mice expressing CAPS-related NLRP3 mutations.
Test: not given
The settings on record: strain expressing CAPS-related NLRP3 mutations; cited from earlier work.
In the case of `O=C(O)c1ccc(/C=C2/SC(=S)N(Cc3cccc(C(F)(F)F)c3)C2=O)cc1` [CY-09], the survival entry is on record as “improved the survival” and the systemic lethal inflammation entry is listed as “suppressed systemic lethal inflammation”.

For the next experiment, the target named is NLRP3 inflammasome (Homo sapiens (Human), UniProt Q96P20). Nature of the experiment: Evaluation of NLRP3 inflammasome inhibitory activity (inhibition of IL-1β production in THP1-Null cells, LPS/Nigericin).
NLRP3 inflammasome, sequence (Q96P20 whole entry): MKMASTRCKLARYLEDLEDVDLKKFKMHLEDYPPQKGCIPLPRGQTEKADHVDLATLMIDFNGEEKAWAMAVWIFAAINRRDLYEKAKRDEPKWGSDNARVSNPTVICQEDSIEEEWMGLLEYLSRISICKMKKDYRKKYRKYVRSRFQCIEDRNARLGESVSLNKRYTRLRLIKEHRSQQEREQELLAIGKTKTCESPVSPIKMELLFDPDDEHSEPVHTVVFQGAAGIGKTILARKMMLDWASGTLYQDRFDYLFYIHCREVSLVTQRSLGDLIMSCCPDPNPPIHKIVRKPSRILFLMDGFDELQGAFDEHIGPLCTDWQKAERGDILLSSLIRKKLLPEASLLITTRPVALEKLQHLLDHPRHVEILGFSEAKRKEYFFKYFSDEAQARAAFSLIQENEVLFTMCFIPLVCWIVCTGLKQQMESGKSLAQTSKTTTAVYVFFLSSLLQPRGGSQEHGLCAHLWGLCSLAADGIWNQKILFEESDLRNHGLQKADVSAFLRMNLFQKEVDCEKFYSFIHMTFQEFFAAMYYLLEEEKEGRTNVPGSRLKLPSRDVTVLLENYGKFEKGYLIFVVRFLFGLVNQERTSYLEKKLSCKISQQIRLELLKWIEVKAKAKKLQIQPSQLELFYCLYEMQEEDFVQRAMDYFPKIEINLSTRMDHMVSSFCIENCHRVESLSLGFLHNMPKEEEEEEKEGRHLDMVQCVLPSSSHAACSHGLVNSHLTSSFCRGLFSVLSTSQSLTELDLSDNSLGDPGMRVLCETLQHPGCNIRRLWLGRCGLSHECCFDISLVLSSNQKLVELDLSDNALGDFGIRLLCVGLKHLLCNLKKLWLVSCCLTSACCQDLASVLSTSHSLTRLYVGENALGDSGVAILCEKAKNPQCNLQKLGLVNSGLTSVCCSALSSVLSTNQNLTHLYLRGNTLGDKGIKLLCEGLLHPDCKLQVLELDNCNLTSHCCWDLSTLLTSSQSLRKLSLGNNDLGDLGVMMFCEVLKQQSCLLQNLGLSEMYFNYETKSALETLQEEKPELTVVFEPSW
Settings: not given
A word on the IC50: it is the concentration at which inhibition is half-maximal. High values mean weaker potency, low ones greater potency. The compound `COC1COCCN(S(=O)(=O)NC(=O)c2coc(Nc3cc(C(C)(F)F)ccc3C)n2)C1` (racemic) [Example 2-185] came in with an IC50 of 38 nM. Consider `COC1CN(S(=O)(=O)NC(=O)c2cnc(Nc3c4c(cc5c3CCC5)CCC4)o2)C1Cl` (racemic) [Example 12], for which the IC50 was 4000 nM.

Turning to `Cc1ccc(C(F)(F)F)cc1Nc1nc(C(=O)NS(=O)(=O)N2CCOCC2CO)co1` (racemic) [Example 2-045], the IC50 worked out at 180 nM. On to `CCS(=O)(=O)N1CCN(S(=O)(=O)NC(=O)c2coc(Nc3cc(C)ccc3C)n2)CC(OC)C1` (racemic) [Example 2-252], for which the IC50 worked out at 190 nM. For `CCCS(=O)(=O)N1CCN(S(=O)(=O)NC(=O)c2coc(Nc3cc(C(F)(F)F)ccc3C)n2)CC(F)C1` (racemic) [Example 2-222], the IC50 came to 30 nM. The compound `CS(=O)(=O)C1CCN(S(=O)(=O)NC(=O)c2coc(Nc3c4c(c(Cl)c5c3CCC5)CCC4)n2)C1` (racemic) [Example 47] gave an IC50 of 420 nM. For `O=C(NS(=O)(=O)N1CCC(O)C1)c1coc(Nc2c3c(c(F)c4c2CCC4)CCC3)n1` (racemic) [Example 52], half-maximal inhibition (IC50) was put at 32 nM.

Staying with this experiment, now noted: IL-1β production in THP1-Null cells, PMA/LPS primed, Nigericin 7.5 μmol/L.
With `CN(C)S(=O)(=O)C1CCN(S(=O)(=O)NC(=O)c2coc(Nc3c4c(c(F)c5c3CCC5)CCC4)n2)CC1` [Example 66], the IC50 is < 30 nM. As to `O=C(NS(=O)(=O)N1CCOCC1)c1cnc(Nc2c3c(cc4c2CCC4)CCC3)o1` [Example 2], the IC50 was < 30 nM. On the same count and under the same terms, with `CC(C)N(C)S(=O)(=O)NC(=O)c1coc(Nc2c3c(cc4c2CCC4)CCC3)n1` [Example 21] the figure was 43 nM; with `O=C(NS(=O)(=O)N1CCOC2(COC2)C1)c1coc(Nc2c3c(c(Cl)c4c2CCC4)CCC3)n1` [Example 57], 74 nM; with `Cc1ccc(C(F)(F)F)cc1Nc1nc(C(=O)NS(=O)(=O)N2CCCC2)co1` [Example 76], 92 nM.

Turning to `CS(=O)(=O)C1CCN(S(=O)(=O)NC(=O)c2coc(Nc3c4c(c(Cl)c5c3CCC5)CCC4)n2)CC1` [Example 43], the IC50 was < 30 nM. On to `Cn1cc(N(C2CCOCC2)S(=O)(=O)NC(=O)c2cnc(Nc3c4c(cc5c3CCC5)CCC4)o2)cn1` [Example 18], for which the IC50 came out at 5400 nM. As for `CC(C)N(C)S(=O)(=O)NC(=O)c1cnc(Nc2c3c(cc4c2CCC4)CCC3)o1` [Example 15], the IC50 was < 30 nM. Take `COCCOC[C@@H]1CCN(S(=O)(=O)NC(=O)c2coc(Nc3cc(C)c(F)cc3C)n2)CCO1` [Example 3-005, (S)-2-((4-fluoro-2,5-dimethylphenyl)amino)-N-((7-((2-methoxyethoxy)methyl)-1,4-oxazepan-4-yl)sulfonyl)oxazole-4-carboxamide]: half-maximal inhibition (IC50) required 40 nM.

The same experiment, now with this note: inhibition of IL-1β production in THP1-Null cells.
Turning to `CCCS(=O)(=O)N1CCCN(S(=O)(=O)NC(=O)c2coc(Nc3cc(C)ccc3C)n2)CC1` [Example 2-228], the IC50 came out at 28 nM. Same read-out and setting: with `Cc1ccc(C(F)(F)F)cc1Nc1nc(C(=O)NS(=O)(=O)N2CCOC(COC(F)F)CC2)co1` (centres unmarked) [Example 2-324] the figure was 17 nM. Turning to `Cc1ccc(C(F)(F)F)cc1Nc1nc(C(=O)NS(=O)(=O)N2CCNC(=O)CC2)co1` [Example 2-050], the IC50 amounted to 600 nM. On to `Cc1ccc(C(F)(F)F)cc1Nc1nc(C(=O)NS(=O)(=O)N2CCCOCC2)cs1` [Example 2-066], for which the IC50 is < 30 nM. The compound `Cc1ccc(C(F)(F)F)cc1Nc1nc(C(=O)NS(=O)(=O)N2CCCN(S(=O)(=O)CCC(F)(F)F)CC2)co1` [Example 2-130] showed an IC50 of 20 nM. In turn, `Cc1ccc(C(F)(F)F)cc1Nc1nc(C(=O)NS(=O)(=O)N2CCOC(CO)CC2)co1` (centres unmarked) [Example 2-272] had an IC50 of 27 nM. In turn, `COCC1CN(S(=O)(=O)NC(=O)c2coc(Nc3cc(C(F)(F)F)ccc3C)n2)CCO1` (centres unmarked) [Example 2-049] came in with an IC50 of 46 nM. For `Cc1ccc(C(C)C)cc1Nc1nc(C(=O)NS(=O)(=O)N(C)C)cs1` [Example 2-054], it took 52 nM to reach half-maximal inhibition (IC50). The compound `Cc1ccc(C(F)(F)F)cc1Nc1nc(C(=O)NS(=O)(=O)NC(C)C)co1` [Example 2-046] came in with an IC50 of 320 nM. With `Cc1ccc(C(F)(F)F)nc1Nc1nc(C(=O)NS(=O)(=O)N2CCCOCC2)co1` [Example 2-088], the IC50 was 120 nM.

Turning to `CCCCS(=O)(=O)N1CCCN(S(=O)(=O)NC(=O)c2coc(Nc3cc(C(F)(F)F)ccc3C)n2)CC1` [Example 2-126], the IC50 turned out to be 10 nM. Turning to `CCCCS(=O)(=O)N1CCCN(S(=O)(=O)NC(=O)c2coc(Nc3cc(C)ccc3C)n2)CC1` [Example 2-203], the IC50 was determined as 18 nM. Compound `CC(C)c1nn(C(C)C)cc1Nc1nc(C(=O)NS(=O)(=O)N2CCCOCC2)co1` [Example 2-090] registered an IC50 of 570 nM. Turning to `CCCC(=O)N1CCCN(S(=O)(=O)NC(=O)c2coc(Nc3cc(C(F)(F)F)ccc3C)n2)CC1` [Example 2-215], the IC50 amounted to 61 nM. For `Cc1ccc(C2(C#N)CC2)cc1Nc1nc(C(=O)NS(=O)(=O)N(C)C)co1` [Example 2-094], the midpoint of inhibition, the IC50, lay at 270 nM. The compound `Cc1ccc(C(F)(F)F)cc1Nc1nc(C(=O)NS(=O)(=O)N2CCCC(c3ncccn3)[C@@H](C)C2)co1` (some centres unmarked) [Example 2-312] displayed an IC50 of 140 nM. In the case of `CCOCC1CCN(S(=O)(=O)NC(=O)c2coc(Nc3nn(C(C)C)cc3C)n2)CCO1` (centres unmarked) [Example 2-333], it took 78 nM to reach half-maximal inhibition (IC50). In turn, `COCC1CCN(S(=O)(=O)NC(=O)c2coc(Nc3cc(C(F)F)ccc3C)n2)CCO1` (centres unmarked) [Example 2-327] came in with a half-maximal inhibitory concentration (IC50) of 29 nM. The same measure, in the same setting: with `CCCCS(=O)(=O)N1CCCN(S(=O)(=O)NC(=O)c2coc(Nc3cc(C(F)F)ccc3C(C)C)n2)CC1` [Example 2-225] the figure was 36 nM. As to `COCCN(C(C)C)S(=O)(=O)NC(=O)c1coc(Nc2cc(C(F)(F)F)ccc2C)n1` [Example 2-048], the IC50 is < 30 nM. `Cc1ccc(C(F)(F)F)cc1Nc1nc(C(=O)NS(=O)(=O)N2CCCN(c3ncccn3)CC2)co1` [Example 2-183]: the midpoint of inhibition, the IC50, lay at 15 nM. Still for that read-out and setting: under `CC(=O)NC1CCN(S(=O)(=O)NC(=O)c2coc(Nc3cc(C(F)(F)F)ccc3C)n2)CC1` [Example 2-033] stands 150 nM. Compound `CCCCS(=O)(=O)N1CCCN(S(=O)(=O)NC(=O)c2coc(Nc3nn(C(C)C)cc3C(C)C)n2)CC1` [Example 2-177] gave an IC50 of 47 nM.

Staying with this experiment, now noted: read-out: % inhibition at 3 μM.
What is called inhibition is how much of the control response was suppressed. Take `CCc1nn(C(C)C)cc1Nc1nc(C(=O)NS(=O)(=O)N2CCCOCC2)co1` [Example 2-193]: the inhibition at 3 µM worked out at 46%. On to `Cc1cn(C(F)F)nc1Nc1nc(C(=O)NS(=O)(=O)N2CCCOCC2)co1` [Example 2-209], for which the inhibition at 3 µM turned out to be 33%.

The experiment is the same for the next values; noted with them: read-out: Inhibition at 30 μM.
With `CC(C)c1cccc(C(C)C)c1Nc1ncc(C(=O)NS(=O)(=O)N(C)C)o1` [Example 20], the inhibition at 30 µM came to 48%. The same measure, in the same setting: with `O=C(NS(=O)(=O)N1CCC2(COC2)C1)c1coc(Nc2c3c(c(Cl)c4c2CCC4)CCC3)n1` [Example 48] the figure was 23%.

Another experiment deals with intra-articular urate-injected arthritis model.
Test: not given
The following applies: cited from earlier work.
With `CS(=O)(=O)CCC#N` [OLT1177], the arthritis result was “suppressed arthritis”.

The test system of the next experiment is MOG35-55EAE model mice.
Test: not given
The settings on record: administration after the onset; cited from earlier work.
Regarding `COc1ccc(Cl)cc1C(=O)NCCc1ccc(S(=O)(=O)NO)cc1` [JC-171, 5-Chloro-N-[2-(4-hydroxysulfamoyl-phenyl)-ethyl]-2-methoxy-benzamide], the “impairment of motor function” value is reported as “inhibited the impairment of motor function”.
